These compounds were tested against T1, BCL6::BCOR (Homo sapiens, UniProt P41182, C67R/C84N/C8Q) (assay: BCL6::BCOR ULight TR-FRET assay).
T1 construct: BCL6 (amino acids 5 to 129, with the following changes to the natural protein); made in house; host or cells: E. coli
Assay type: binding
From the text: Biological Methods BCL6::BCOR ULight TR-FRET Assay:
Biotinylated BCL6 protein corresponding to BCL6 (amino acids 5 to 129, with the following changes to the natural protein: C8Q, C67R, C84N) is expressed in E. coli with a carboxy-terminal Avi tag (amino acid sequence […]). The BCOR ULight peptide uses a direct carboxy-terminal ULight tag (PerkinElmer). The sequence of the peptide is CRSEIISTAPSSWVVPGP, with the amino terminus acetylated and the ULight tag attached to the cysteine. Compounds are dispensed onto assay plates (Proxiplate 384 PLUS, white, PerkinElmer) using an Access Labcyte Workstation with the Labcyte Echo 55×from a DMSO solution. For the chosen highest assay concentration of 100 μM, 150 nl of compound solution are transferred from a 10 mM DMSO compound stock solution. A series of 11 concentrations is transferred for each compound at which each concentration is fivefold lower than the previous one. DMSO is added such that every well has a total of 150 nl compound solution. 5 μL of 1 nM BCL6 protein in assay buffer (50 mM HEPES pH 7.3; 125 mM NaCl; 1 mM GSH; 0.01% Triton-X 100; 0.03% BSA) are added to the 150 nl of compounds. After 30 minutes incubation time at room temperature, 10 μL of a mix containing BCOR ULight peptide (100 nM final assay concentration) and Streptavidin-Europium (0.75 nM final assay concentration) are added. Plates are kept at room temperature. After 240 minutes incubation time the TR-FRET signal is measured in a PerkinElmer Envision HTS Multilabel Reader using the TR-FRET LANCE Ultra specs of PerkinElmer. Each plate contains negative controls (diluted DMSO instead of test compound; BCOR peptide and Streptavidin Europium mix with BCL6 protein) and positive controls (diluted DMSO instead of test compound; BCOR peptide and Streptavidin-Europium mix without BCL6 protein). Negative and positive control values are used for normalization.
`CNC(=O)COc1cc2cc(Nc3nc(N4CCC(C(=O)N(C)C)CC4)ncc3Cl)cc(OC)c2n(C)c1=O` [Compound I-148, 1-[5-chloro-4-({8-methoxy-1-methyl-3-[(methylcarbamoyl)methoxy]-2-oxo-1,2-dihydroquinolin-6-yl}amino)pyrimidin-2-yl]-N,N-dimethylpiperidine-4-carboxamide] was tested, and the IC50 was 3 nM. In the case of `CNC(=O)COc1cc2cc(Nc3nc(N4CCC[C@H](C)C4)ncc3Cl)ccc2n(C)c1=O` [Compound I-66], the IC50 is reported as 5 nM. For `C[C@@H]1C[C@H](C)CN(c2ncc(Cl)c(Nc3ccc4c(c3)cc(OCC(=O)O)c(=O)n4C)n2)C1` [Compound I-131, 2-{[6-({5-chloro-2-[cis-3,5-dimethylpiperidin-1-yl]pyrimidin-4-yl}amino)-1-methyl-2-oxo-1,2-dihydroquinolin-3-yl]oxy}-acetic acid], the IC50 was 5 nM. For `CNC(=O)COc1cc2cc(Nc3nc(N4C[C@H](C)C[C@H](C)C4)ccc3Cl)ccc2n(C)c1=O` [Compound I-177, 2-{[6-({3-chloro-6-[cis-3,5-dimethylpiperidin-1-yl]pyridin-2-yl}amino)-1-methyl-2-oxo-1,2-dihydroquinolin-3-yl]oxy}-N-methylacetamide], the IC50 was 87 nM. Work on `CCOC1CCCN(c2ncc(Cl)c(Nc3ccc4c(c3)cc(OCC(=O)O)c(=O)n4C)n2)C1` (centres unmarked) [Compound I-112] yielded an IC50 of 7 nM. `C[C@@H]1C[C@H](C)CN(c2ncc(Cl)c(Nc3ccc4c(c3)cc(OCC(=O)NCCO)c(=O)n4C)n2)C1` [Compound I-135] showed an IC50 of 16 nM. Work on `CNC(=O)COc1cc2cc(Nc3nc(N4CCC(N5CCCCC5)CC4)ncc3Cl)ccc2n(C)c1=O` [Compound I-42] yielded an IC50 of 9 nM. `C[C@@H]1C[C@H](C)CN(c2ncc(F)c(Nc3ccc4c(c3)cc(OCC(=O)O)c(=O)n4C)n2)C1` [Compound I-100] gave an IC50 of 12 nM. `CCCN(CCC)CCC1CCN(c2ncc(Cl)c(Nc3ccc4c(c3)cc(OCC(=O)NC)c(=O)n4C)n2)CC1` [Compound I-128] was tested, and the IC50 was 7 nM. `CNC(=O)COc1cc2cc(Nc3nc(N4CCO[C@H](C)C4)ncc3Cl)ccc2n(C)c1=O` [Compound I-52] gave an IC50 of 7 nM. `CNC(=O)COc1cc2cc(Nc3nc(N4CCc5cnccc5C4)ncc3Cl)ccc2n(C)c1=O` [Compound I-47] gave an IC50 of 5 nM. `CNC(=O)COc1cc2cc(Nc3nc(N4C[C@@H](C)C[C@H](C)C4)ncc3Cl)ccc2n(C)c1=O` (single isomer, unassigned) [Compound I-6] was tested, and the IC50 was 7 nM. For `CNC(=O)COc1cc2cc(Nc3nc(N4CCC5(CC4)CC5)ncc3Cl)ccc2n(C)c1=O` [Compound I-31], the IC50 was 6 nM. Work on `CNC(=O)COc1cc2cc(Nc3nc(N4CC(C)(C)CC(C)(C)C4)ncc3Cl)ccc2n(C)c1=O` [Compound I-24] yielded an IC50 of 13 nM. `CNC(=O)COc1cc2cc(Nc3nc(N4CCC(N5C[C@H]6CC[C@@H](C5)O6)CC4)ncc3Cl)ccc2n(C)c1=O` [Compound I-57] showed an IC50 of 6 nM. Compound `CNC(=O)COc1cc2cc(Nc3nc(N4CCC[C@@H](C(=O)N(C)C5CCN(C)CC5)C4)ncc3Cl)ccc2n(C)c1=O` [Compound I-170] has an IC50 of 8 nM. For `CCn1c(=O)c(OCC(=O)NC)cc2cc(Nc3nc(N4CCC(C(=O)N(C)C)CC4)ncc3Cl)ccc21` [Compound I-161], the IC50 was 5 nM. In the case of `Cn1cnc2c1CCN(c1ncc(Cl)c(Nc3ccc4c(c3)cc(OCC(=O)O)c(=O)n4C)n1)C2` [Compound I-115], the IC50 is reported as 9 nM. `CNC(=O)COc1cc2cc(Nc3nc(N4C[C@H](F)C[C@@H](F)C4)ncc3Cl)ccc2n(C)c1=O` [Compound I-64] was tested, and the IC50 was 9 nM. Work on `C[C@@H]1C[C@H](C)CN(c2ncc(Cl)c(Nc3ccc4c(c3)cc(OC[S@@+](C)[O-])c(=O)n4C)n2)C1` (single isomer, unassigned) [Compound I-173] yielded an IC50 of 37 nM. For `CNC(=O)COc1cc2cc(Nc3nc(N4CCC(O)(C(F)(F)F)CC4)ncc3Cl)ccc2n(C)c1=O` [Compound I-32], the IC50 was 5 nM. With `CNC(=O)COc1cc2cc(Nc3nc(N4CCC(F)CC4)ncc3Cl)ccc2n(C)c1=O` [Compound I-25] the IC50 was 4 nM. `C[C@@H]1C[C@H](C)CN(c2ncc(Cl)c(Nc3ccc4c(c3)cc(O[C@H](C)C(=O)O)c(=O)n4C)n2)C1` (relative stereo) [Compound I-154] was tested, and the IC50 was 82 nM. `Cn1c(=O)c(OCC(=O)O)cc2cc(Nc3nc(N4CCC(Nc5ncccn5)CC4)ncc3Cl)ccc21` [Compound I-101] showed an IC50 of 10 nM. Compound `CNC(=O)COc1cc2cc(Nc3nc(N4CCc5cn[nH]c5C4)ncc3Cl)ccc2n(C)c1=O` [Compound I-67] has an IC50 of 5 nM. In the case of `CNC(=O)COc1cc2cc(Nc3nc(N4C[C@H](C)C[C@H](C)C4)ncc3Cl)ccc2n(C)c1=O` [Compound I-4, 2-[(6-{[5-chloro-2-(cis-3,5-dimethylpiperidin-1-yl)pyrimidin-4-yl]amino}-1-methyl-2-oxo-1,2-dihydro-quinolin-3-yl)oxy]-N-methylacetamide], the IC50 is reported as 3 nM. `CCN1CCN(C2CCN(c3ncc(Cl)c(Nc4ccc5c(c4)cc(OCC(=O)NC)c(=O)n5C)n3)CC2)CC1` [Compound I-38] showed an IC50 of 35 nM. For `CNC(=O)COc1cc2cc(Nc3nc(N4CC5CCCC5C4)ncc3Cl)ccc2n(C)c1=O` (centres unmarked) [Compound I-72], the IC50 was 9 nM. `CNC(=O)COc1cc2cc(Nc3nc(N4CCC(C(=O)O)CC4)ncc3Cl)ccc2n(CC2CC2)c1=O` [Compound I-86] gave an IC50 of 3 nM. For `CNC(=O)COc1cc2cc(Nc3nc(N4CCO[C@@H](C)C4)ncc3Cl)ccc2n(C)c1=O` [Compound I-51], the IC50 was 6 nM. For `CNC(=O)COc1cc2cc(Nc3nc(N4CCCC(CN5CCCCC5)C4)ncc3Cl)ccc2n(C)c1=O` (centres unmarked) [Compound I-127], the IC50 was 9 nM. `CNC(=O)COc1cc2cc(Nc3nc(N4C[C@H](C)C[C@H](C)C4)ncc3Cl)ccc2n(CC2CC2)c1=O` [Compound I-87] was tested, and the IC50 was 15 nM. For `CNC(=O)COc1cc2cc(Nc3nc(N4CCCC(CCCCN5CCCC5)C4)ncc3Cl)ccc2n(C)c1=O` (centres unmarked) [Compound I-123], the IC50 was 7 nM. `Cn1c(=O)c(OCC(=O)O)cc2cc(Nc3nc(N4CCC(c5ccccc5)CC4)ncc3Cl)ccc21` [Compound I-109] was tested, and the IC50 was 21 nM. With `CNC(=O)COc1cc2cc(Nc3nc(N4CCC(CCN5CCCCC5)CC4)ncc3Cl)ccc2n(C)c1=O` [Compound I-43] the IC50 was 6 nM. `CNC(=O)COc1cc2cc(Nc3nc(N4CCC(C(=O)O)CC4)ncc3Cl)ccc2n(C(C)C)c1=O` [Compound I-82] gave an IC50 of 4 nM. `Cn1c(=O)c(OCC(=O)O)cc2cc(Nc3nc(N4CCCN(c5ccccc5)CC4)ncc3Cl)ccc21` [Compound I-105] was tested, and the IC50 was 114 nM. Work on `C[C@@H]1C[C@H](C)CN(c2ncc(Cl)c(Nc3ccc4c(c3)cc(OCC(=O)OCCN(C)C)c(=O)n4C)n2)C1` [Compound I-139, 2-(dimethylamino)ethyl 2-{[6-({5-chloro-2-[cis-3,5-dimethylpiperidin-1-yl]pyrimidin-4-yl}amino)-1-methyl-2-oxo-1,2-dihydroquinolin-3-yl]oxy}acetate] yielded an IC50 of 6 nM. In the case of `CNC(=O)COc1cc2cc(Nc3nc(N4C[C@H](F)C[C@H](F)C4)ncc3Cl)ccc2n(C)c1=O` [Compound I-65], the IC50 is reported as 23 nM. `C[C@@H]1C[C@H](C)CN(c2ncc(Cl)c(Nc3ccc4c(c3)cc(OCC(=O)N(C)C)c(=O)n4C)n2)C1` [Compound I-133, 2-{[6-({5-chloro-2-[cis-3,5-dimethyl-piperidin-1-yl]pyrimidin-4-yl}amino)-1-methyl-2-oxo-1,2-dihydroquinolin-3-yl]oxy}-N,N-dimethylacetamide] showed an IC50 of 29 nM. In the case of `CNC(=O)COc1cc2cc(Nc3nc(N4CCC5(CCN(C)CC5)CC4)ncc3Cl)ccc2n(C)c1=O` [Compound I-36], the IC50 is reported as 5 nM.

Source: patent US11001570B2, “6-amino-quinolinone compounds and derivatives as BCL6 inhibitors” (Boehringer Ingelheim International GmbH, priority 2016, dated 2021)
